Results on 31 compounds are retold here after PMC5118696, “Identification of inhibitors that dually target the new permeability pathway and dihydroorotate dehydrogenase in the blood stage of Plasmodium falciparum” (Scientific Reports, 2016).

The structures appear in SMILES notation. Like-named read-outs stand apart in the source and are kept apart here.

The subject of assay [1] is Hyp1-NLuc Plasmodium falciparum-infected erythrocytes (new permeability pathway, NPP). Kind of assay: microbe, parasite or virus in culture. The settings on record: Erythrocyte, 0.33 h, read-out: % of control remaining.
For assay [2] the test system is unchanged. Kind of assay: microbe, parasite or virus in culture. The settings on record: Erythrocyte, 0.33 h, read-out: Mean RLU at 28 min (As % of DMSO control).
Assay [3] addresses T1, PfDHODH (dihydroorotate dehydrogenase) (Plasmodium falciparum, UniProt Q08210).
T1 construct: gene PFF0160c; amino acids 169–569
Kind of assay: DCIP reduction enzyme assay with recombinant PfDHODH; IC50 extrapolated, inhibition did not reach […]. Format: biochemical.

T1 sequence (Q08210 169-569): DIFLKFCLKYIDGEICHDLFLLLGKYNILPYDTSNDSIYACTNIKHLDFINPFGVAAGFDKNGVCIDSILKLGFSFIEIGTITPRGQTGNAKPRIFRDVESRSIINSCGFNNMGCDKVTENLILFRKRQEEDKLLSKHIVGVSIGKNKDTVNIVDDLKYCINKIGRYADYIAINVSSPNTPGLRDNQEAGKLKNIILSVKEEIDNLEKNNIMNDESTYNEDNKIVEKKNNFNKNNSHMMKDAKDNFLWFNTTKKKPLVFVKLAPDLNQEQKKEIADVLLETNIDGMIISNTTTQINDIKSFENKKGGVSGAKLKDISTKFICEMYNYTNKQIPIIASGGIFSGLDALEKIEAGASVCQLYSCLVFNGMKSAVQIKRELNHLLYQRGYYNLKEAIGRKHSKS

As a reminder, the IC50 is the point on the concentration scale where inhibition reaches its midpoint. In the case of `Cc1ccc(CSCc2ccc(C(=O)NC3CC3)o2)cc1` [MMV007571], the activity at 2 µM was found to be 26% in assay [1] and 22% in assay [2]. Also, the IC50 in assay [3] is about 158 µM.
For `COCCN(C(=O)Cc1cccs1)C(C(=O)NCc1ccc(OC)cc1)c1ccc(C(C)C)cc1` (stereo not drawn) [MMV666105], the activity at 2 µM in assay [1] turned out to be 113%; in assay [2] it was 100%.
Taken in the same sequence, the figures for `O=C(NC1CCCCC1)C(c1cccs1)N(CCc1ccccc1)C(=O)c1ccco1` (stereo not drawn) [MMV666106] were 105% and 96.6%.
For `O=C(CCc1ccco1)NC1CCN(CC2(c3ccc(Cl)cc3)CCC2)CC1` [MMV666108], in that order: 114% and 100%.
On to `CCOC(=O)C1(Cc2ccccc2)CCN(Cc2cccc(OC)c2O)CC1` [MMV666109], for which the results for the activity at 2 µM in assay [1] and in assay [2] were 97.9% and 93.9%, respectively.
Take `C=C(C)CCC(C)N1CCC(N2CCC(C(=O)NCCc3ccccc3)CC2)CC1` (stereo not drawn) [MMV666110]: the activity at 2 µM in assay [1] came to 116%; in assay [2], 108%.
For the compound `Oc1ccccc1CN1CCC2(CCCN(Cc3ccccc3F)C2)C1` (stereo not drawn) [MMV666116], the activity at 2 µM in assay [1] amounted to 106%; in assay [2], 100%.
For `CC(C)(C)c1ccc(C(=O)Nc2c3c(nn2-c2cccc(Cl)c2)CSC3)cc1` [MMV666123], the activity at 2 µM in assay [1] is 108%; in assay [2], 104%.
As for `CC(=O)c1ccc(NC(=O)CSc2nc(-c3ccccc3Cl)ns2)cc1` [MMV666124], the activity at 2 µM in assay [1] is 69.6%; in assay [2], 96.8%.
`CC1=C(CC(=O)c2cccc([N+](=O)[O-])c2)C(=O)c2ccccc2C1=O` [MMV666125]: the activity at 2 µM in assay [1] amounted to 101%; in assay [2], 96.1%.
Taken in the same sequence, the figures for `CSC1=NC(=Nc2c(C)cccc2C)C2(CCC(C(C)(C)C)CC2)N1c1ccc(Cl)cc1` (stereo not drawn) [MMV666596] were 107% and 106%.
In the case of `CCCCCCc1cc2cc(-c3nc4ccccc4[nH]3)c(=Nc3ccccc3C)oc2cc1O` [MMV666597], the activity at 2 µM is 111% in assay [1] and 102% in assay [2].
Take `O=c1nc(C=Cc2ccc(Br)cc2)oc2ccccc12` [MMV666599]: the activity at 2 µM in assay [1] worked out at 94.3%; in assay [2] it was 102%.
Consider `CCOC(=O)c1c(C)n(-c2ccc(Cl)cc2)c2ccc(OC(=O)C=Cc3ccccc3)cc12` [MMV666600], for which the activity at 2 µM was 100% in assay [1] and 101% in assay [2].
Take `CCOC(=O)C1=C(c2ccccc2)N=c2sc(=Cc3cc(C)n(-c4ccc(F)cc4)c3C)c(=O)n2C1c1cccc(OC)c1OC` (stereo not drawn) [MMV666601]: the activity at 2 µM in assay [1] amounted to 103%; in assay [2], 105%.
With `CCOC(=O)C1=C(C)N=c2sc(=Cc3ccccc3O)c(=O)n2C1c1ccc(OC)c2ccccc12` (stereo not drawn) [MMV666604], the activity at 2 µM in assay [1] came to 117%; in assay [2], 110%.
Regarding `O=[N+]([O-])c1ccc(C=NNc2nc3ccccc3[nH]2)cc1` [MMV666607], the activity at 2 µM in assay [1] came out at 102%; in assay [2] it was 103%.
For the compound `COc1ccccc1C(=O)ON=C(N)Cc1cccc2ccccc12` [MMV666686], the results for the activity at 2 µM in assay [1] and in assay [2] were 96.4% and 102%, respectively.
Turning to `COc1cc(C(=O)ON=C(N)Cc2cccc3ccccc23)cc(OC)c1OC` [MMV666687], the activity at 2 µM came to 104% in assay [1] and 106% in assay [2].
For `Cc1cc(C=C2SC(=Nc3ccccc3)N(C3CCCC3)C2=O)c(C)n1-c1ccc(Cl)cc1` [MMV666688], the activity at 2 µM is 98.7% in assay [1] and 99.9% in assay [2].
Take `COc1ccc(Nc2nc(NN=Cc3ccc(O)cc3)nc(Nc3ccc([N+](=O)[O-])cc3)n2)cc1` [MMV666689]: the activity at 2 µM stood at 93.1% in assay [1] and 95.2% in assay [2].
For `COc1ccc(C=C2SC(=N)N(c3ccccc3OC)C2=O)cc1` [MMV666691], in that order: 26.4% and 61.9%.
Turning to `CCCCCCc1cc2cc(-c3csc(C=Cc4ccccc4)n3)c(=O)oc2cc1O` [MMV666692], the values for the activity at 2 µM in assay [1] and in assay [2] were 99.2% and 102%, respectively.
`COc1cccc(C=Cc2nc(=O)c3ccccc3o2)c1OC` [MMV666693]: the activity at 2 µM worked out at 29.9% in assay [1] and 75% in assay [2].
As for `CCOc1ccc(N2C(N)=NC(N)=NC2(C)C)cc1` [MMV667486], the activity at 2 µM in assay [1] stood at 98%; in assay [2], 98.6%.
As for `CN(C)c1ccc(N2C(N)=NC(N)=NC2(C)C)cc1` [MMV667487], the activity at 2 µM in assay [1] stood at 98.1%; in assay [2] it was 97%.
For `COc1ccc(CCn2c(=N)c(C(=O)NCc3cccnc3)cc3c(=O)n4cccc(C)c4nc32)cc1` [MMV667488], the results for the activity at 2 µM in assay [1] and in assay [2] were 95.6% and 105%, respectively.
Taken in the same sequence, the figures for `COC(=O)c1ccc(Cl)c2c1C1C=CCC1C(c1cccc3ccccc13)N2` (stereo not drawn) [MMV667489] were 100% and 103%.
Regarding `COc1ccc(C2c3ccc4ccccc4c3Oc3ncn(CCCn4ccnc4)c(=N)c32)cc1OC` (stereo not drawn) [MMV667490], the activity at 2 µM in assay [1] came to 98.4%; in assay [2], 102%.
For `COc1ccc(C2c3ccc4ccccc4c3Oc3ncn(CCCN(C)C)c(=N)c32)cc1` (stereo not drawn) [MMV667491], the activity at 2 µM in assay [1] came out at 69.1%; in assay [2], 87.3%.
Consider `CN(N=O)C1=C(NC2CCCCC2)C(=O)c2ccccc2C1=O` [MMV667492], for which the results for the activity at 2 µM in assay [1] and in assay [2] were 90.8% and 103%, respectively.
